One data set addresses T1, LeuO (Escherichia coli, UniProt P10151).
T1 sequence (P10151 1-314): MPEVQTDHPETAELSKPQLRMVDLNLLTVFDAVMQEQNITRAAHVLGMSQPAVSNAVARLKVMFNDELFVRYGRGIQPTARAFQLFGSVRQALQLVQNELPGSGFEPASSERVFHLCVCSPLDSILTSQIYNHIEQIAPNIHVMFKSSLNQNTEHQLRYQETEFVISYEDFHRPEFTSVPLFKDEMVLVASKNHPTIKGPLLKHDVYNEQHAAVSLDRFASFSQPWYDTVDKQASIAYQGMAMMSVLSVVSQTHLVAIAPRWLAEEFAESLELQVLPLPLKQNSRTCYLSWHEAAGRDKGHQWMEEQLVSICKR
Kind of data set: thermal shift assay (Protein Thermal Shift Dye). The class given is binding. Particulars: 10 mM compound; LeuO with leuLABCD promoter DNA; pH 7.5, EMSA buffer without BSA; activating effector. For orientation: A gel shift assay detects complexes by their altered migration in electrophoresis.

In the next data set the test system is LeuO (Escherichia coli). In words: EMSA. The conditions noted are these: EMSA: 10 mM Tris-HCl, 50 mM KCl, 5 mM MgCl2, 5% glycerol, 0.1 mg/ml BSA, pH 7.5, 500 ng salmon sperm DNA in 20 µl, 15 min at room temperature; gel 0.5x TBE at ….

Results on 2 compounds are retold here after article PMC12494820, “Predicting input signals of transcription factors in Escherichia coli” (Molecular Systems Biology, 2025).

By ΔTm is commonly meant the shift of the melting midpoint relative to a reference. Regarding `CC(C)[C@@](O)(CC(=O)O)C(=O)O` [2-IPM, 2-isopropylmalate], the ΔTm on LeuO worked out at 1.6 °C. For the compound leuLABCD promoter region fragment, the K half with LeuO (Escherichia coli) was determined as 25 nM.
